Patent US20260078135A1, “POLYCYCLIC QUINAZOLINES FOR INHIBITION OF ERBB2” (Enliven Inc., priority 2022, published 2026)

Tests used:
[1] = biological target: T1, phosphorylated ERBB2 (pERBB2) (Homo sapiens, UniProt P04626); assay: Detection of phosphorylated ERBB2 (pERBB2) by ELISA in BT-474 cells; format: cell-based; details: four hour incubation
T1 construct: endogenous in cells; host or cells: BT-474
Procedure: BT-474 cells were seeded into a 96-well at 2.0*10^4 cells/100 μl/well. Compounds were dissolved and serially diluted in DMSO. The compounds were then were added, mixed, and incubated for four hours at 37° C., 5% CO2. Compounds were added using four-fold dilutions at final concentrations ranging from 10 μM to 0.01 nM. Following the four hour incubation with compounds, cell lysates were prepared. Plates were centrifuged for 5 μmin at 3000 RPM, and supernatant was removed from each well. Cells were washed 3 times by resuspension in 150 μl PBS, followed by centrifugation and removal of the supernatant, as above. 100 μl of cell lysis buffer (Boston BioProducts, cat #BP-115D) supplied with 1× complete ULTRA cocktail inhibitor (Thermo ScientificTM, cat #78443) was then added to the washed cells. Cells were incubated with lysis buffer for 1 hour at 4° C., and then stored at -80° C. Enzyme-linked immunosorbent assays (ELISA) were performed to measure phosphorylated ERBB2 levels. […] The next day, plates were washed with PBS+0.05% Tween20 (PBST). 150 μl of 5% BSA blocking solution was added for 1 hour at room temperature, with shaking. Plates were washed with PBST. Cell lysates were thawed and 100 μl of lysate was added to the ELISA plate. The plates were incubated for 2 hours at room temperature, with shaking. ELISA plates were then washed with PBST and 100 μl of an HRP-labeled detection antibody that binds phosphorylated tyrosine (R&D Systems, cat #841913) was added to each well. Plates were incubated for 1 hour at room temperature, with shaking. Plates were then washed with PBST, and 100 μl TMB substrate solution (R&D Systems, cat #DY999) was added. Plate were incubated in the dark for 20 minutes at room temperature. 50 μl of Stop solution (R&D Systems, cat #DY994) (50 μl) was added to each well and mixed. Optical density at 450 nm was read on an EnSpire plate reader (Perkin Elmer). The remaining kinase activity by calculated using the following formula: % Relative activity=100×([…]). The low and high control values (“LC” and “HC”) were generated from lysate from wells without cells or with cells treated with 0.1% DMSO, respectively.

[2] = biological target: T2, phosphorylated EGFR (pEGFR) (Homo sapiens, UniProt P00533); assay: Detection of phosphorylated EGFR (pEGFR) by AlphaLISA in EGF-stimulated A431 cells; format: cell-based; details: A431 cells (10% FBS), 4 hours incubation, EGF 30 ng/mL for 10 minutes
T2 construct: performed to measure phosphorylated EGFR levels using A431 cells (10% FBS); endogenous in cells; host or cells: A431
T2 sequence (P00533 25-1210): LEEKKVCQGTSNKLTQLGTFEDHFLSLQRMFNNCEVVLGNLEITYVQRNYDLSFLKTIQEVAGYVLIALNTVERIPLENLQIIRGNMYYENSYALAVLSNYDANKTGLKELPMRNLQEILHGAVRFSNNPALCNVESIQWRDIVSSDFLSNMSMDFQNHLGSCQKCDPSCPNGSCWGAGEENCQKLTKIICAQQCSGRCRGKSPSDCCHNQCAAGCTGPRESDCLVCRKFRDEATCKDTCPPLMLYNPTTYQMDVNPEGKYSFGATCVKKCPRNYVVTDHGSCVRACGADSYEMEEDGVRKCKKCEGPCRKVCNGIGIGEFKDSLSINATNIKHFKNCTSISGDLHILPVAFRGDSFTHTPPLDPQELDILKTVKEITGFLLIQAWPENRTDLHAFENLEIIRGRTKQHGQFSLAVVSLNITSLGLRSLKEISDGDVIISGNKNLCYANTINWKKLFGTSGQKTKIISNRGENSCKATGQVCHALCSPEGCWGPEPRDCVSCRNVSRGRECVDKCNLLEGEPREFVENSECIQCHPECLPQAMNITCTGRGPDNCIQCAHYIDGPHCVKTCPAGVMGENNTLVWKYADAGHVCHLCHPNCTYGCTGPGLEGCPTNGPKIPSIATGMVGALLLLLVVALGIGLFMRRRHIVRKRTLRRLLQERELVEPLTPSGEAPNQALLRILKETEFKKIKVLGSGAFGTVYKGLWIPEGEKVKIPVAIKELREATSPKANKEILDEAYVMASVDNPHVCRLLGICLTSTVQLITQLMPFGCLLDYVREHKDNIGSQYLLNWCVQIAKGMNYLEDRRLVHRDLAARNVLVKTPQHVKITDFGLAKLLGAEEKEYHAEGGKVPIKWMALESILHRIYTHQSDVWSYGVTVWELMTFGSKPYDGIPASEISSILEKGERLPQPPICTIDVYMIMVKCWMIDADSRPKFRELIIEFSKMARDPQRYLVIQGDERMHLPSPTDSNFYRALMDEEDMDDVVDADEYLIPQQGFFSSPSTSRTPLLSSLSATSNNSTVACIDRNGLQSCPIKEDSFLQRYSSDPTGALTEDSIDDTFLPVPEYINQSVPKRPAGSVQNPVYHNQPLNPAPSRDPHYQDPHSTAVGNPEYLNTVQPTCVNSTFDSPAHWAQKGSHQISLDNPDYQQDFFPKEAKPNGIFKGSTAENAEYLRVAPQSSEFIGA
Procedure: Enzyme-linked immunosorbent assays (ELISA) were performed to measure phosphorylated EGFR levels using A431 cells (10% FBS). A431 (1.0*10^4 cells/40 μl/well) cells were seeded in 384 well. Compounds were dissolved in DMSO, serially diluted in DMSO and then were added, mixed, and incubated for 4 hours at 37° C., 5% C02. Following the 4-hours incubation, cells were stimulated for 10 minutes with EGF (Invitrogen, cat #PHG0311) at a final concentration of 30 ng/mL in the incubator. The media was aspirated and cells were lysed in 10 μL lysis buffer with protease and phosphatase inhibitors (PerkinElmer, cat #ALSU-PEGFR-A50K). The plates were placed on a shaker for 5 μminutes and then incubated for 30 min at 4° C. for complete lysis. The lysate was transferred to an Optiplate (Perkin Elmer, cat #6007290).
Acceptor mix (PerkinElmer, cat #ALSU-PEGFR-A50K) was prepared just before use and 5 μL was dispensed to all the wells, followed by a 1.5-2 h incubation at room temperature in dark. The donor mix (PerkinElmer, cat #ALSU-PEGFR-A50K) was prepared under low light conditions prior to use and 5 μl of donor mix was added to all the wells under subdued lighting or green filters. The plates were placed on a shaker for 5 μmin, sealed, and incubated overnight at room temperature in dark. Plates were read on the Envision (PerkinElmer) using standard AlphaLISA settings.
The percentage of inhibition on EGFR phosphorylation was calculated following equation: % Inhibition=100×(LumHC−LumSample)/(LumHC−LumLC). The low and high controls (LC/HC) are generated from lysate from wells with cells treated with DMSO or […] Staurosporine (BioAustralis, cat #BIA-S1086), […]. IC50 values were calculated by fitting the Curve using XLfit (v5.3.1.3), equation 201: Y=Bottom+(Top−Bottom)/(1+10^((Log IC50−X)*HillSlope)).

T1 sequence (P04626 23-1255): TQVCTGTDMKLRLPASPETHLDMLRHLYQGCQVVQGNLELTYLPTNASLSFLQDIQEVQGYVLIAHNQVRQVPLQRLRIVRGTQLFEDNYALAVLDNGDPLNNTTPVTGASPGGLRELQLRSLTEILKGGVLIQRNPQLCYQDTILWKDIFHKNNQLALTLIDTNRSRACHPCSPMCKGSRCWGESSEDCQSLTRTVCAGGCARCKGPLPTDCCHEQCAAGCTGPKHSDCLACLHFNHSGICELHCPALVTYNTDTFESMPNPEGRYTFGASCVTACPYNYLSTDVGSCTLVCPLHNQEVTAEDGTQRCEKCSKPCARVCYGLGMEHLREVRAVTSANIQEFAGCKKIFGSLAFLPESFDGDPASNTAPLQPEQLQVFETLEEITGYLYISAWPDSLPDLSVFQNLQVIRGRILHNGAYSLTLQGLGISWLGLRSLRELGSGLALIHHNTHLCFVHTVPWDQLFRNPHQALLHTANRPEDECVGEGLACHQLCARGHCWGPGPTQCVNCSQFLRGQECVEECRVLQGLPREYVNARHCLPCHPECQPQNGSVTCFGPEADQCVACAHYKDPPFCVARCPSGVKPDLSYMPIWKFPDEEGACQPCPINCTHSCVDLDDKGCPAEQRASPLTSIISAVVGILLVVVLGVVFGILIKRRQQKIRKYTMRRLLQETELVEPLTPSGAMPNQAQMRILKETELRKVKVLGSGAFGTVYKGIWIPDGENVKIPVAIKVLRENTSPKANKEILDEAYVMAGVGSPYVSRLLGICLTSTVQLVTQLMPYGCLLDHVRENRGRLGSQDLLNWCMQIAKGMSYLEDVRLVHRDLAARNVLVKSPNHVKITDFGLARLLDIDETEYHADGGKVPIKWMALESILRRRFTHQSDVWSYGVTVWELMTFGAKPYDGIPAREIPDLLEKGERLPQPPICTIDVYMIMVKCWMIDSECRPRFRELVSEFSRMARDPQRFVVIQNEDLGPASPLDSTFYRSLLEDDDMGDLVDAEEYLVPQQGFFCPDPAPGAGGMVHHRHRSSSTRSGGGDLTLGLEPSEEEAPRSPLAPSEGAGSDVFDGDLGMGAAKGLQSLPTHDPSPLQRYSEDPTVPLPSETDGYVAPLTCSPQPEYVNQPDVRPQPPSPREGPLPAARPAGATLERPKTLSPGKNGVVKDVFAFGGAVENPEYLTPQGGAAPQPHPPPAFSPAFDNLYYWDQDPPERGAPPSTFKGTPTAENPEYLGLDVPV

Structure (SMILES)	IC50 [1]	IC50 [2]
Cc1cc(Nc2ncnc3ccc4c(c23)OC[C@@H]2CN(C)CCN42)ccc1Oc1ccc2c(c1)ncn2C [Compound 48, (S)-8-methyl-N-(3-methyl-4-((1-methyl-1H-benzo[d]imidazol-5-yl)oxy)phenyl)-6,6a,7,8,9,10-hexahydropyrazino[1′,2′:4,5][1,4]oxazino[2,3-f]quinazolin-4-amine]	146 nM	> 10000 nM
Cc1cc(Nc2ncnc3ccc4c(c23)OC[C@@H]2CN4CCN2)ccc1Oc1ccc2c(c1)ncn2C [Compound 53, (3S)—N-(3-methyl-4-((1-methyl-1H-benzo[d]imidazol-5-yl)oxy)phenyl)-3,4,5,6-tetrahydro-2H-3,7-methano[1,4,7]oxadiazonino[2,3-f]quinazolin-13-amine]	541 nM	> 10000 nM
Cc1cc(Nc2ncnc3ccc4c(c23)OC[C@@H]2CN4CCN2C)ccc1Oc1ccc2c(c1)ncn2C [Compound 54, (3S)-4-methyl-N-(3-methyl-4-((1-methyl-1H-benzo[d]imidazol-5-yl)oxy)phenyl)-3,4,5,6-tetrahydro-2H-3,7-methano[1,4,7]oxadiazonino[2,3-f]quinazolin-13-amine]	82.1 nM	> 10000 nM
Cc1cc(Nc2ncnc3ccc4c(c23)OC[C@H]2CN4CCN2)ccc1Oc1ccc2c(c1)ncn2C [Compound 55, (3R)—N-(3-methyl-4-((1-methyl-1H-benzo[d]imidazol-5-yl)oxy)phenyl)-3,4,5,6-tetrahydro-2H-3,7-methano[1,4,7]oxadiazonino[2,3-f]quinazolin-13-amine]	108 nM	> 10000 nM
Cc1cc(Nc2ncnc3ccc4c(c23)OC[C@H]2CN4CCN2C)ccc1Oc1ccc2c(c1)ncn2C [Compound 56, (3R)-4-methyl-N-(3-methyl-4-((1-methyl-1H-benzo[d]imidazol-5-yl)oxy)phenyl)-3,4,5,6-tetrahydro-2H-3,7-methano[1,4,7]oxadiazonino[2,3-f]quinazolin-13-amine]	127 nM	> 10000 nM
Cc1cc(Nc2ncnc3cc4c(cc23)N2CCNC[C@H]2CO4)ccc1Oc1ccn2ncnc2c1 [Compound 57, (S)—N-(4-([1,2,4]triazolo[1,5-a]pyridin-7-yloxy)-3-methylphenyl)-1,2,3,4,4a,5-hexahydropyrazino[1′,2′:4,5][1,4]oxazino[3,2-g]quinazolin-11-amine]	26.7 nM	> 10000 nM
Cc1cc(Nc2ncnc3cc4c(cc23)N2CCNC[C@@H]2CO4)ccc1Oc1ccn2ncnc2c1 [Compound 59, (R)—N-(4-([1,2,4]triazolo[1,5-a]pyridin-7-yloxy)-3-methylphenyl)-1,2,3,4,4a,5-hexahydropyrazino[1′,2′:4,5][1,4]oxazino[3,2-g]quinazolin-11-amine]	91.7 nM	> 10000 nM
Cc1cc(Nc2ncnc3cc4c(cc23)N2CCN(C)C[C@H]2CO4)ccc1Oc1ccc2c(c1)ncn2C [Compound 62, (S)-3-methyl-N-(3-methyl-4-((1-methyl-1H-benzo[d]imidazol-5-yl)oxy)phenyl)-1,2,3,4,4a,5-hexahydropyrazino[1′,2′:4,5][1,4]oxazino[3,2-g]quinazolin-11-amine]	38.5 nM	> 10000 nM
Cc1cc(Nc2ncnc3cc4c(cc23)N2CCNC[C@@H]2CO4)ccc1Oc1ccc2c(c1)ncn2C [Compound 63, (R)—N-(3-methyl-4-((1-methyl-1H-benzo[d]imidazol-5-yl)oxy)phenyl)-1,2,3,4,4a,5-hexahydropyrazino[1′,2′:4,5][1,4]oxazino[3,2-g]quinazolin-11-amine]	153 nM	> 10000 nM

Continued by falling IC50 [1], values first:

IC50 [1]	IC50 [2]	Structure (SMILES)
223 nM	> 10000 nM	Cc1cc(Nc2ncnc3cc4c(cc23)N2CCN(C)C[C@@H]2CO4)ccc1Oc1ccc2c(c1)ncn2C [Compound 64, (R)-3-methyl-N-(3-methyl-4-((1-methyl-1H-benzo[d]imidazol-5-yl)oxy)phenyl)-1,2,3,4,4a,5-hexahydropyrazino[1′,2′:4,5][1,4]oxazino[3,2-g]quinazolin-11-amine]
119 nM	> 10000 nM	Cc1cc(Nc2ncnc3cc4c(c(F)c23)N2CCN(C)C[C@H]2CO4)ccc1Oc1ccn2ncnc2c1 [Compound 66, (S)—N-(4-([1,2,4]triazolo[1,5-a]pyridin-7-yloxy)-3-methylphenyl)-12-fluoro-3-methyl-1,2,3,4,4a,5-hexahydropyrazino[1′,2′:4,5][1,4]oxazino[3,2-g]quinazolin-11-amine]
118 nM	> 10000 nM	Cc1cc(Nc2ncnc3cc4c(cc23)N2CCNC[C@H]2CO4)ccc1Oc1ccc2c(c1)ncn2C [Compound 61, (S)—N-(3-methyl-4-((1-methyl-1H-benzo[d]imidazol-5-yl)oxy)phenyl)-1,2,3,4,4a,5-hexahydropyrazino[1′,2′:4,5][1,4]oxazino[3,2-g]quinazolin-11-amine]
97.2 nM	> 10000 nM	Cc1cc(Nc2ncnc3cc4c(cc23)N2CCN(C)C[C@@H]2CO4)ccc1Oc1ccn2ncnc2c1 [Compound 60, (R)—N-(4-([1,2,4]triazolo[1,5-a]pyridin-7-yloxy)-3-methylphenyl)-3-methyl-1,2,3,4,4a,5-hexahydropyrazino[1′,2′:4,5][1,4]oxazino[3,2-g]quinazolin-11-amine]
94.9 nM	> 10000 nM	CCN1CCN2c3nc4c(Nc5ccc(Oc6ccn7ncnc7c6)c(C)c5)ncnc4cc3OC[C@@H]2C1 [Compound 65, (S)—N-(4-([1,2,4]triazolo[1,5-a]pyridin-7-yloxy)-3-methylphenyl)-3-ethyl-1,2,3,4,4a,5-hexahydropyrazino[1,2-d]pyrimido[4′,5′:5,6]pyrido[3,2-b][1,4]oxazin-11-amine]
91.2 nM	> 10000 nM	Cc1cc(Nc2ncnc3ccc4c(c23)OC[C@@H]2CNCCN42)ccc1Oc1ccc2c(c1)ncn2C [Compound 47, (S)—N-(3-methyl-4-((1-methyl-1H-benzo[d]imidazol-5-yl)oxy)phenyl)-6,6a,7,8,9,10-hexahydropyrazino[1′,2′:4,5][1,4]oxazino[2,3-f]quinazolin-4-amine]
54 nM	> 10000 nM	Cc1cc(Nc2ncnc3ccc4c(c23)OC[C@H]2CNCCN42)ccc1Oc1ccc2c(c1)ncn2C [Compound 45, (R)—N-(3-methyl-4-((1-methyl-1H-benzo[d]imidazol-5-yl)oxy)phenyl)-6,6a,7,8,9,10-hexahydropyrazino[1′,2′:4,5][1,4]oxazino[2,3-f]quinazolin-4-amine]
22.3 nM	> 10000 nM	Cc1cc(Nc2ncnc3ccc4c(c23)OC[C@H]2CN(C)CCN42)ccc1Oc1ccc2c(c1)ncn2C [Compound 46, (R)-8-methyl-N-(3-methyl-4-((1-methyl-1H-benzo[d]imidazol-5-yl)oxy)phenyl)-6,6a,7,8,9,10-hexahydropyrazino[1′,2′:4,5][1,4]oxazino[2,3-f]quinazolin-4-amine]
21.9 nM	> 10000 nM	Cc1cc(Nc2ncnc3cc4c(cc23)N2CCN(C)C[C@H]2CO4)ccc1Oc1ccn2ncnc2c1 [Compound 58, (S)—N-(4-([1,2,4]triazolo[1,5-a]pyridin-7-yloxy)-3-methylphenyl)-3-methyl-1,2,3,4,4a,5-hexahydropyrazino[1′,2′:4,5][1,4]oxazino[3,2-g]quinazolin-11-amine]
